Literature values in US20250064725A1, “OPHTHALMIC PREPARATION OF TYROSINE KINASE INHIBITOR, AND PREPARATION METHOD THEREFOR AND USE THEREOF” (CHENGDU RUIMU BIOPHARMACEUTICALS CO., LTD., priority 2021, published 2025).

Key:
[1] = oral administration of tablets
[2] = system: age-related macular degeneration; conditions: oral tablets 50, 100, 200 mg/day

For CNC(=O)c1ccccc1Sc1ccc2c(/C=C/c3ccccn3)n[nH]c2c1 [axitinib], the “Incidence rate of diarrhea” value [1] is given as 55%, the “Incidence rate of fatigue” value [1] is given as 39% and the “Incidence rate of hypertension” value [1] is given as 40%. For the same molecule, the “Incidence rate of loss of appetite” value [1] was 34% and the “Incidence rate of nausea” value [1] was 32%.

In the case of CNC(=O)c1cc(Oc2ccc(NC(=O)Nc3ccc(Cl)c(C(F)(F)F)c3)cc2)ccn1 [sorafenib], the “Incidence rate of diarrhea” value [1] is listed as 53%, the “Incidence rate of fatigue” value [1] is listed as 32% and the “Incidence rate of hypertension” value [1] is listed as 29%. The “Incidence rate of loss of appetite” value [1] was 29% and the “Incidence rate of nausea” value [1] was 22%.

In the case of Cc1[nH]c(/C=C2\C(=O)Nc3ccc(F)cc32)c(C)c1C(=O)N[C@H]1CCN(C(=O)N(C)C)C1 [Example X-82], the “Toxicity outcome of the clinical trial” value [2] is listed as “suspended due to its toxicity” and the Visual improvement ([2]; after 6 months) is listed as “non-inferior”.
